Source: ChEMBL document CHEMBL4325911, “Discovery of N-(piperidin-3-yl)-N-(pyridin-2-yl)piperidine/piperazine-1-carboxamides as small molecule inhibitors of PCSK9” (Bioorg Med Chem Lett, 2018)

Tests used:
80S Ribosome [1] = assay: Binding affinity to 80S ribosome in human HeLa cells lysates using human full length PCSK9 encoding mRNAs assessed as inhibition of PCSK9 mRNA translation after 45 mins by Steady-Glo luciferase reporter gene assay; assay type: cell-free
[2] = Intrinsic clearance in human liver microsomes; assay type: ADME, Microsome; conditions: read-out: CLH
[3] = Lipophilicity, log D of the compound by shake flask method; assay type: physicochemical; conditions: octanol/water
Bone marrow cell = assay: Cytotoxicity against rat bone marrow cells assessed as reduction in cell viability after 72 hrs by celltiter glo assay; assay type: cell-based
[4] = target: Voltage-gated inwardly rectifying potassium channel KCNH2 (Homo sapiens, UniProt Q12809); assay: Binding affinity to human ERG by dofetilide fluorescence polarization binding assay
Chain of Voltage-gated inwardly rectifying potassium channel KCNH2 (Q12809 whole entry): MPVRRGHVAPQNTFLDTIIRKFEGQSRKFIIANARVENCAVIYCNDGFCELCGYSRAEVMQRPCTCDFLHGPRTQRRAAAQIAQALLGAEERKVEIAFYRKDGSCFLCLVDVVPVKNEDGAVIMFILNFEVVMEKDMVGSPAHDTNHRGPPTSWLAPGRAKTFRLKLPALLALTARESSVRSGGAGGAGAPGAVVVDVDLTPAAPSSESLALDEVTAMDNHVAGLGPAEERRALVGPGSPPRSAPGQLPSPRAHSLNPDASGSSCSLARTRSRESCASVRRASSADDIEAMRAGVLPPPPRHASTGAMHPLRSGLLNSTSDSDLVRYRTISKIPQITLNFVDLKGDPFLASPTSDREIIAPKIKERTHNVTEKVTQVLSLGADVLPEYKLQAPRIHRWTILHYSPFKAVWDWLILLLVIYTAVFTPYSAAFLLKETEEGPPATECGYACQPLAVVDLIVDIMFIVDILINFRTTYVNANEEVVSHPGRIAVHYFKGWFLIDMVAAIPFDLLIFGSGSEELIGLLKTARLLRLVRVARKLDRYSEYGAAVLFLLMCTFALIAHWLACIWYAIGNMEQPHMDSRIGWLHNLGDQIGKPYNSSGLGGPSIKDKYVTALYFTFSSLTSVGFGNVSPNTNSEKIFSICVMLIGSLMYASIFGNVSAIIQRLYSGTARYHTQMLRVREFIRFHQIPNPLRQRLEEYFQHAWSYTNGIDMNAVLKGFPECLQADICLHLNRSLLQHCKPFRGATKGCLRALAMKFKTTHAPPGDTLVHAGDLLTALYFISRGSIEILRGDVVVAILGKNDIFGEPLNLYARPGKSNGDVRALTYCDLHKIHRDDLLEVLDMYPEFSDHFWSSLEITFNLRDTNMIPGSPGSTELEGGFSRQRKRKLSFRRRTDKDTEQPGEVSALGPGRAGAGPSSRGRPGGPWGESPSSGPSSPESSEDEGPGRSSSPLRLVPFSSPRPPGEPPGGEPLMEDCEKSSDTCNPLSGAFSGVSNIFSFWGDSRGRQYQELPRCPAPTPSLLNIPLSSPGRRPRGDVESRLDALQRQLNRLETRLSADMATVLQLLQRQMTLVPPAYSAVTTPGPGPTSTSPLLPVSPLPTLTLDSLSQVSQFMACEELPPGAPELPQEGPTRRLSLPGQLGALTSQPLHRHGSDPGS

[5] = Permeability in RRCK cells measured up to 1.5 hrs; assay type: ADME, cell-based, Canis lupus familiaris, MDCKII-LE; conditions: dog, MDCK; read-out: permeability
80S Ribosome [6] = assay: Binding affinity to 80S ribosome in human HuH7 cells harboring human PCSK9 (1 to 152 residues)-proLuc assessed as inhibition of PCSK9 mRNA translation after overnight incubation by luciferase reporter gene assay; assay type: cell-based; conditions: huh-7

| IC50 (80S Ribosome [1]) [µM] | microsomal CLint [2] [µL/min/mg] | logD [3] | Papp at 1.5 h [5] [×10⁻⁶ cm/s] | IC50 (80S Ribosome [6]) [µM] | SMILES | IC50 (Bone marrow cell) [µM] | Ki [4] [µM] |
| --- | --- | --- | --- | --- | --- | --- | --- |
| 3.63 | < 8 | 0.3 | 11.5 |  | Cc1nccnc1N(C(=O)N1CCC(c2ccccc2)CC1)[C@@H]1CCCNC1 | > 100 | 24.8 |
|  | 13.8 | 0.8 | 5.8 | 12.6 | O=C(N1CCN(c2ccccc2)CC1)N(c1nccc2ccccc12)[C@@H]1CCCNC1 |  | 9.2 |
| 2.08 | < 9.3 | 0.9 | 12.8 | 2.21 | O=C(N1CCC(c2ccccc2)CC1)N(c1ncccc1Cl)[C@@H]1CCCNC1 |  | 14.3 |
| 4.38 | < 8 | 1 | 9.5 |  | Cc1cccnc1N(C(=O)N1CCC(c2ccccc2F)CC1)[C@@H]1CCCNC1 | 46.2 | 9.8 |
| 0.5 | 11.8 | 1.4 | 5.2 |  | Cn1ccc2ccnc(N(C(=O)N3CCC(c4ccccc4)CC3)[C@@H]3CCCNC3)c21 | 11.7 | 5.7 |
|  | < 8 | -0.5 | 1.8 | > 20 | O=C(N1CCC(c2cnn3cccnc23)CC1)N(c1ncccc1Cl)[C@@H]1CCCNC1 |  |  |
| 0.92 | < 8 | 0.2 | 1.8 |  | Cc1cccnc1N(C(=O)N1CCC(c2cnn3cccnc23)CC1)[C@@H]1CCCNC1 | 10.1 | > 40 |
| 2.33 | < 8 | 0.7 | 8.7 | 2.05 | Cc1cccnc1N(C(=O)N1CCC(c2ccccc2)CC1)[C@@H]1CCCNC1 |  | > 25 |
|  |  |  | 0.3 |  | O=C(c1ccc(-c2ccccc2)cc1)N(c1nccc2ccccc12)[C@@H]1CCCNC1 |  |  |
| 2.27 | 9.3 | 0.7 | 6.2 | 0.85 | Cc1cnc2c(c1)nnn2-c1ccc(CCC(=O)N(c2ncccc2Cl)[C@@H]2CCCNC2)nc1 | 27.1 | 5.9 |
| 1.54 | 13.9 | 1.4 | 3.9 | 1.73 | O=C(N1CCC(c2ccccc2)CC1)N(c1nccc2ccccc12)[C@@H]1CCCNC1 | 12.7 | 4.1 |
|  | 12.9 | 1.6 | 8.9 | 3.5 | Cc1ccc2c(N3CCN(C(=O)N(c4nccc5ccccc45)[C@@H]4CCCNC4)CC3)noc2c1 | 31.1 | 1.2 |

| SMILES | IC50 (80S Ribosome [1]) [µM] | microsomal CLint [2] [µL/min/mg] | logD [3] | Papp at 1.5 h [5] [×10⁻⁶ cm/s] | IC50 (80S Ribosome [6]) [µM] | IC50 (Bone marrow cell) [µM] | Ki [4] [µM] |
| --- | --- | --- | --- | --- | --- | --- | --- |
| COc1ccc(CCC(=O)N(c2nccc3ccccc23)[C@@H]2CCCNC2)cc1 | 8.04 |  | 1 |  |  |  |  |
